Earlier results on one molecule are cited in patent publication US10537125B2, “Chlorine dioxide gas releasing package label insert for enhancing microbial safety of food” (priority 2016, dated 2020).

Data set [1] has as its system Salmonella. The settings on record: one-time application, treatment time 6 min to 120 min.
For data set [2], the system named is Salmonella. As to conditions: constant ClO2 0.5 mg/L air for 15, 30, and 60 min.
For data set [3] the following is noted: at 20° C. and 760 mm Hg.

As for `[O][Cl+][O-]` [ClO2, chlorine dioxide], the “Salmonella inactivation range reported by others” value in the data set with Salmonella [1] is recorded as 1.54-5.15 log. The “reduction of Salmonella on mung bean sprouts” value with Salmonella [2] is on record as “up to 4 log CFU Salmonella/g”. The solubility in water entry in data set [3] is “about 70 g/L”.
